The values that follow come from patent US20030060493A1, “Repinotan kit” (priority 2000, published 2003).

This series has as its system stroke or craniocerebral trauma. As to the kind of experiment: Clinical studies in healthy subjects and patients after stroke or craniocerebral trauma. It counts as in vivo, human.

For `O=C1c2ccccc2S(=O)(=O)N1CCCCNCC1CCc2ccccc2O1` (stereo in doubt) [repinotan, 2-[4-({[(2R)-chroman-2-yl]methyl}amino)butyl]-1,2-benzisothiazol-3(2H)-one 1,1-dioxide], the “neurological and functional deficits” value (after 3 and 6 months respectively depending on indication) was “possible to improve the neurological and functional deficits”. Further, for the setting “healthy subjects and patients after a stroke or craniocerebral trauma”, the tolerability entry is on record as “good tolerability”. Moreover, the “result of treatment versus placebo” value (patients who reached blood plasma concentrations of about 5-20 μg/l) is reported as “markedly better”.
